From PubChem BioAssay AID328 (DTP/NCI, 2004)
Where “and” joins values, the source holds several entries; their conditions need not be identical. Equal values may be shown once. Toxic doses and inconclusive results are not listed. Rule for the calls: active = survival T/C of 150% or more; inactive = T/C below 125% in these data.

Tested on: BDF1 mice, P388 leukemia ip, median survival T/C
Assay: NCI In Vivo Anticancer Drug Screen. Data for tumor model P388 Leukemia (intraperitoneal) in B6D2F1 (BDF1) mice
Conditions: endpoint: median survival time, higher = longer survival
In short: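 Reported as T/C, where T is the survival measurement in dosed animals and C the same measurement in vehicle controls.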

[1] = dose: 100.0 mg/kg/injection, schedule: Q01DX009 (ip), vehicle: saline
[2] = dose: 100.0 mg/kg/injection, schedule: Q04DX003 (ip), vehicle: saline
[3] = dose: 200.0 mg/kg/injection, schedule: Q01DX009 (ip), vehicle: saline
[4] = dose: 200.0 mg/kg/injection, schedule: Q04DX003 (ip), vehicle: saline
[5] = dose: 400.0 mg/kg/injection, schedule: Q01DX009 (ip), vehicle: saline
[6] = dose: 400.0 mg/kg/injection, schedule: Q04DX003 (ip), vehicle: saline
[7] = dose: 12.5 mg/kg/injection, schedule: Q01DX009 (ip), vehicle: saline
[8] = dose: 25.0 mg/kg/injection, schedule: Q01DX009 (ip), vehicle: saline
[9] = dose: 25.0 mg/kg/injection, schedule: Q04DX003 (ip), vehicle: saline
[10] = dose: 50.0 mg/kg/injection, schedule: Q01DX009 (ip), vehicle: saline
[11] = dose: 50.0 mg/kg/injection, schedule: Q04DX003 (ip), vehicle: saline
[12] = dose: 100.0 mg/kg/injection, schedule: Q04DX003 (ip), vehicle: saline with Tween-80
[13] = dose: 200.0 mg/kg/injection, schedule: Q04DX003 (ip), vehicle: saline with Tween-80
[14] = dose: 400.0 mg/kg/injection, schedule: Q04DX003 (ip), vehicle: saline with Tween-80
[15] = dose: 3.12 mg/kg/injection, schedule: Q01DX009 (ip), vehicle: saline
[16] = dose: 6.25 mg/kg/injection, schedule: Q01DX009 (ip), vehicle: saline
[17] = dose: 50.0 mg/kg/injection, schedule: Q01DX005 (ip), vehicle: saline with Tween-80
[18] = dose: 100.0 mg/kg/injection, schedule: Q01DX005 (ip), vehicle: saline with Tween-80
[19] = dose: 200.0 mg/kg/injection, schedule: Q01DX005 (ip), vehicle: saline with Tween-80

Measured: T/C

CCOC(=O)CCN1CCCC1
inactive: [1] 100 % of control | [2] 100 % of control | [3] 91 % of control | [4] 100 % of control | [5] 100 % of control | [6] 95 % of control

N#CC(c1ccccc1)C1CCCCC1 (centres undefined)
inactive: dose: 75.0 mg/kg/injection, schedule: Q04DX003 (ip), vehicle: saline 111 % of control | dose: 150.0 mg/kg/injection, schedule: Q04DX003 (ip), vehicle: saline 107 % of control | dose: 300.0 mg/kg/injection, schedule: Q04DX003 (ip), vehicle: saline 115 % of control

Cc1nc(NN)c(C(N)=O)nc1C
inactive: [7] 97 % of control | [8] 89 % of control | [9] 106 % of control | [10] 93 % of control and 120 % of control | [11] 102 % of control

Cc1ccccc1C1(c2ccccc2C)OC(=O)c2ccccc21
inactive: dose: 100.0 mg/kg/injection, schedule: Q01DX009 (ip), vehicle: Klucel (hydroxypropylcellulose) (HPC) 90 % of control | dose: 100.0 mg/kg/injection, schedule: Q04DX003 (ip), vehicle: Klucel (hydroxypropylcellulose) (HPC) 95 % of control | dose: 200.0 mg/kg/injection, schedule: Q01DX009 (ip), vehicle: Klucel (hydroxypropylcellulose) (HPC) 104 % of control | dose: 200.0 mg/kg/injection, schedule: Q04DX003 (ip), vehicle: Klucel (hydroxypropylcellulose) (HPC) 91 % of control | dose: 400.0 mg/kg/injection, schedule: Q01DX009 (ip), vehicle: Klucel (hydroxypropylcellulose) (HPC) 90 % of control | dose: 400.0 mg/kg/injection, schedule: Q04DX003 (ip), vehicle: Klucel (hydroxypropylcellulose) (HPC) 87 % of control

O=C(c1ccc(Cl)cc1)C1Cc2ccccc2C1=O (centres undefined)
inactive: dose: 100.0 mg/kg/injection, schedule: Q01DX009 (ip), vehicle: saline with Tween-80 91 % of control | [12] 91 % of control | dose: 200.0 mg/kg/injection, schedule: Q01DX009 (ip), vehicle: saline with Tween-80 91 % of control | [13] 121 % of control | dose: 400.0 mg/kg/injection, schedule: Q01DX009 (ip), vehicle: saline with Tween-80 100 % of control | [14] 100 % of control

COc1cc2c(cc1OC)C1CCc3cc(OC)c(OC)cc3C1N=C2 (centres undefined)
inactive: dose: 20.0 mg/kg/injection, schedule: Q01DX009 (ip), vehicle: saline 95 % of control | dose: 40.0 mg/kg/injection, schedule: Q01DX009 (ip), vehicle: saline 95 % of control | dose: 80.0 mg/kg/injection, schedule: Q01DX009 (ip), vehicle: saline 100 % of control | dose: 120.0 mg/kg/injection, schedule: Q01DX009 (ip), vehicle: saline 100 % of control | dose: 240.0 mg/kg/injection, schedule: Q01DX009 (ip), vehicle: saline 95 % of control

O=C(Nc1ccc(NC(=O)c2ccccc2)c(Sc2ccccc2)c1Sc1ccccc1)c1ccccc1
inactive: dose: 100.0 mg/kg/injection, schedule: Q01DX001 (ip), vehicle: saline with Tween-80 90 % of control | dose: 400.0 mg/kg/injection, schedule: Q01DX001 (ip), vehicle: saline with Tween-80 100 % of control

O=C(CC(O)(C(F)(F)F)C(F)(F)F)c1cccs1
inactive: dose: 132.0 mg/kg/injection, schedule: Q04DX003 (ip), vehicle: saline with Tween-80 105 % of control

CC(=O)Oc1ccc(OC(C)=O)c2c1CC1(C)OC1(C)C2 (centres undefined)
inactive: dose: 1.56 mg/kg/injection, schedule: Q01DX009 (ip), vehicle: saline 96 % of control | [15] 96 % of control | [16] 99 % of control | [7] 88 % of control | [8] 88 % of control | [9] 96 % of control | [10] 97 % of control and 109 % of control | [11] 107 % of control | [1] 96 % of control | [2] 87 % of control | [3] 94 % of control | [4] 103 % of control | [5] 90 % of control | [6] 100 % of control

CCOC(=O)Nc1cc(NC(c2ccccc2)c2ccccc2)c2[nH]cnc2n1
inactive: dose: 15.0 mg/kg/injection, schedule: Q04DX003 (ip), vehicle: saline with Tween-80 87 % of control | dose: 60.0 mg/kg/injection, schedule: Q04DX003 (ip), vehicle: saline with Tween-80 108 % of control

CCNC(=O)OCc1cnc(C)c(OC(=O)NCC)c1COC(=O)NCC
inactive: dose: 25.0 mg/kg/injection, schedule: Q01DX005 (ip), vehicle: saline with Tween-80 98 % of control | [17] 110 % of control | [18] 100 % of control | [19] 101 % of control

O=C(O)CC(O)(CC(=O)O)C(=O)O
inactive: dose: 50.0 mg/kg/injection, schedule: Q02DX005 (ip), vehicle: water 123 % of control | dose: 100.0 mg/kg/injection, schedule: Q02DX005 (ip), vehicle: water 114 % of control | dose: 400.0 mg/kg/injection, schedule: Q02DX005 (ip), vehicle: water 94 % of control

NC(=O)c1cc(Cl)nc2nc(Cl)nc(N)c12
inactive: dose: 50.0 mg/kg/injection, schedule: Q04DX003 (ip), vehicle: saline with Tween-80 105 % of control | [12] 104 % of control and 109 % of control | [13] 116 % of control and 117 % of control | [14] 116 % of control and 122 % of control

CC1(C)N=C(N)N=C(N)N1c1cccc(OCCOc2ccc(NC(=O)CBr)cc2)c1
inactive: dose: 50.0 mg/kg/injection, schedule: Q01DX009 (ip), vehicle: saline sonified 116 % of control | dose: 100.0 mg/kg/injection, schedule: Q01DX009 (ip), vehicle: saline sonified 111 % of control

c1ccc(-n2nc3c(c2OCCN2CCCC2)CCCc2ccccc2-3)cc1
inactive: dose: 66.0 mg/kg/injection, schedule: Q04DX003 (ip), vehicle: saline with Tween-80 108 % of control | [12] 104 % of control and 116 % of control

CN=C1C=C(NC)C(F)(F)C1(F)F
inactive: dose: 6.25 mg/kg/injection, schedule: Q01DX009 (ip), vehicle: saline with Tween-80 95 % of control | dose: 12.5 mg/kg/injection, schedule: Q01DX009 (ip), vehicle: saline with Tween-80 100 % of control | dose: 12.5 mg/kg/injection, schedule: Q04DX003 (ip), vehicle: Klucel (hydroxypropylcellulose) (HPC) 100 % of control | dose: 25.0 mg/kg/injection, schedule: Q01DX009 (ip), vehicle: saline with Tween-80 100 % of control | dose: 25.0 mg/kg/injection, schedule: Q04DX003 (ip), vehicle: Klucel (hydroxypropylcellulose) (HPC) 100 % of control

O=S(=O)(O)O.[O]=[V]
inactive: [15] 89 % of control | [16] 92 % of control | dose: 8.75 mg/kg/injection, schedule: Q01DX001 (ip), vehicle: saline 95 % of control | [7] 100 % of control | dose: 12.5 mg/kg/injection, schedule: Q04DX003 (ip), vehicle: saline 92 % of control and 100 % of control | dose: 17.5 mg/kg/injection, schedule: Q01DX001 (ip), vehicle: saline 100 % of control | [8] 100 % of control | [9] 95 % of control | dose: 35.0 mg/kg/injection, schedule: Q01DX001 (ip), vehicle: saline 100 % of control | dose: 50.0 mg/kg/injection, schedule: Q01DX001 (ip), vehicle: saline 90 % of control | [11] 89 % of control

CCOC(=O)N1CCc2cc(OC)c(OC)cc2C1Cc1ccc(OC)c(OC)c1 (centres undefined)
inactive: [17] 92 % of control | [18] 105 % of control | [19] 92 % of control
